# In paper PMC12396409, “Screening and hit evaluation of a microbial metabolite library against the pathogenic Plasmodium falciparum and Toxoplasma gondii parasites” (International Journal for Parasitology: Drugs and Drug …, 2025):
# Where two headings read alike, the source gives them in different places. Where a SMILES comes first, the peptide text is derived from it. [ ]: non-standard residue; d: D form. d(aIle) = CC[C@H](C)[C@@H](N)C(=O)O; Hica(2S) = CC(C)C[C@H](O)C(=O)O; NMeL = CN[C@@H](CC(C)C)C(=O)O; Hiv = CC(C)[C@H](O)C(=O)O
# How the values were obtained:
# [1] = tested on: P. falciparum 3D7 parasites; test: P. falciparum growth inhibition assay, 2-cycle (120 h treatment), delayed-death screen and dose-response; format: cell-based, Plasmodium falciparum; settings: for activity at 2 µg/mL: Plasmodium falciparum
# [2] = tested on: P. falciparum 3D7 parasites; test: P. falciparum growth inhibition assay, 1-cycle (72 h treatment), SYBR DNA staining (library screen at 2 μg/mL and dose-response); format: cell-based, Plasmodium falciparum; settings: for activity at 2 µg/mL: Plasmodium falciparum
# [3] = tested on: T. gondii RH strain (RH-Tub-eYFP) tachyzoites; test: microbe, parasite or virus in culture; format: cell-based, Toxoplasma gondii; settings: for percent parasite growth at 2 µg/mL: Toxoplasma gondii
# [4] = P. falciparum 3D7, 120 h, library screen at 2 μg/mL, % growth, replicate 1
# [5] = P. falciparum 3D7, 120 h, library screen at 2 μg/mL, % growth, replicate 2
# [6] = P. falciparum 3D7, 72 h, library screen at 2 μg/mL, % growth, replicate 1
# [7] = P. falciparum 3D7, 72 h, library screen at 2 μg/mL, % growth, replicate 2
# [8] = T. gondii RH, 72 h, library screen at 2 μg/mL, % growth, replicate 1
# [9] = T. gondii RH, 72 h, library screen at 2 μg/mL, % growth, replicate 2
# [10] = P. falciparum, 120 h, screen at 2 μg/mL, replicate 1
# [11] = P. falciparum, 120 h, screen at 2 μg/mL, replicate 2
# [12] = P. falciparum, 72 h, screen at 2 μg/mL, replicate 1
# [13] = P. falciparum, 72 h, screen at 2 μg/mL, replicate 2
# [14] = T. gondii, 72 h, screen at 2 μg/mL, replicate 1
# [15] = T. gondii, 72 h, screen at 2 μg/mL, replicate 2
# [16] = P. falciparum, 120 h, parasite screen 2 μg/mL, % growth, replicate 1
# [17] = P. falciparum, 120 h, parasite screen 2 μg/mL, % growth, replicate 2
# [18] = P. falciparum, 72 h, parasite screen 2 μg/mL, % growth, replicate 1
# [19] = P. falciparum, 72 h, parasite screen 2 μg/mL, % growth, replicate 2
# [20] = T. gondii, 72 h, parasite screen 2 μg/mL, % growth, replicate 1
# [21] = T. gondii, 72 h, parasite screen 2 μg/mL, % growth, replicate 2
# [22] = library screen at 2 μg/mL, 120 h, % growth, replicate 1
# [23] = library screen at 2 μg/mL, 120 h, % growth, replicate 2
# [24] = library screen at 2 μg/mL, 72 h, % growth, replicate 1
# [25] = library screen at 2 μg/mL, 72 h, % growth, replicate 2
# [26] = T. gondii, 72 h, 2 μg/mL, values are growth (% of control)
compound,measurement,setting,value
COc1ccc(/C=C/C(=O)O)cc1O [BIA-I1729],Pf_120h_%Growth_Rep1,[1]; [4],85.87%
same,Pf_120h_%Growth_Rep2,[1]; [5],112.77%
same,Pf_72h_%Growth_Rep1,[2]; [6],80.53%
same,Pf_72h_%Growth_Rep2,[2]; [7],116.78%
same,Tg_72h_%Growth_Rep1,[3]; [8],136.89%
same,Tg_72h_%Growth_Rep2,[3]; [9],92.18%
CCCC(O)C(O)C1CC(OC)=CC(=O)O1 (stereo not shown) [BIA-H1068],Pf_120h_%Growth_Rep1,[1]; [4],95.79%
same,Pf_120h_%Growth_Rep2,[1]; [5],147.07%
same,Pf_72h_%Growth_Rep1,[2]; [6],88.88%
same,Pf_72h_%Growth_Rep2,[2]; [7],77.83%
same,Tg_72h_%Growth_Rep1,[3]; [8],107.81%
same,Tg_72h_%Growth_Rep2,[3]; [9],92.55%
"O=C(O)/C=C/c1ccc(O)cc1 [Coumaric acid, p-]",Pf_120h_%Growth_Rep1,[1]; [10],65.95%
same,Pf_120h_%Growth_Rep2,[1]; [11],100.33%
same,Pf_72h_%Growth_Rep1,[2]; [12],85.52%
same,Pf_72h_%Growth_Rep2,[2]; [13],91.08%
same,Tg_72h_%Growth_Rep1,[3]; [14],117.43%
same,Tg_72h_%Growth_Rep2,[3]; [15],104.71%
COc1cc(-c2oc3c(OC)c(OC)cc(O)c3c(=O)c2OC)ccc1O [Ternatin],activity at 2 µg/mL,"[1]; 3D7, P. falciparum, 120 h, screen at 2 μg/mL, replicate 1, read-out: Pf_120h_%Growth_Rep1",137%
same,activity at 2 µg/mL,"[1]; 3D7, P. falciparum, 120 h, screen at 2 μg/mL, replicate 2, read-out: Pf_120h_%Growth_Rep2",71.9%
same,activity at 2 µg/mL,"[2]; 3D7, P. falciparum, 72 h, screen at 2 μg/mL, replicate 1, read-out: Pf_72h_%Growth_Rep1",64%
same,activity at 2 µg/mL,"[2]; 3D7, P. falciparum, 72 h, screen at 2 μg/mL, replicate 2, read-out: Pf_72h_%Growth_Rep2",81%
same,percent parasite growth at 2 µg/mL,"[3]; 72 h, T. gondii, 72 h, screen at 2 μg/mL, replicate 1, read-out: Tg_72h_%Growth_Rep1",71.2%
same,percent parasite growth at 2 µg/mL,"[3]; 72 h, T. gondii, 72 h, screen at 2 μg/mL, replicate 2, read-out: Tg_72h_%Growth_Rep2",66.7%
CC[C@H](C)[C@H]1NC(=O)[C@H](C(C)C)OC(=O)[C@H](CC(C)C)N(C)C(=O)[C@H](C(C)C)NC(=O)[C@H](CC(C)C)OC(=O)[C@@H](CC(C)C)NC1=O [Sporidesmolide V] (cyclo([Hica(2S)]V[NMeL][Hiv][d(aIle)][dL])),Pf_120h_%Growth_Rep1,[1]; [16],158.27%
same,Pf_120h_%Growth_Rep2,[1]; [17],82.66%
same,Pf_72h_%Growth_Rep1,[2]; [18],8.13%
same,Pf_72h_%Growth_Rep2,[2]; [19],0.54%
same,Tg_72h_%Growth_Rep1,[3]; [20],84.27%
same,Tg_72h_%Growth_Rep2,[3]; [21],95.04%
Eprinomectin,Pf_120h_%Growth_Rep1,[1]; [22],33.01%
same,Pf_120h_%Growth_Rep2,[1]; [23],14.57%
same,Pf_72h_%Growth_Rep1,[2]; [24],61.67%
same,Pf_72h_%Growth_Rep2,[2]; [25],29.66%
same,Tg_72h_%Growth_Rep1,[3]; [24],130.43%
same,Tg_72h_%Growth_Rep2,[3]; [25],107.67%
CCCCCCCCCCCCCC(=O)N[C@H]1CCOC1=O [Tetradecanoyl-L-homoserine lactone],Pf_120h_%Growth_Rep1,[1]; [10],140.07%
same,Pf_120h_%Growth_Rep2,[1]; [11],68.40%
same,Pf_72h_%Growth_Rep1,[2]; [12],70.00%
same,Pf_72h_%Growth_Rep2,[2]; [13],83.15%
same,Tg_72h_%Growth_Rep1,[3]; [14],91.68%
same,Tg_72h_%Growth_Rep2,[3]; [15],91.92%
Cc1c2ccocc-2oc1=O [BIA-K1791],Pf_120h_%Growth_Rep1,[1]; [4],94.18%
same,Pf_120h_%Growth_Rep2,[1]; [5],112.81%
same,Pf_72h_%Growth_Rep1,[2]; [6],78.18%
same,Pf_72h_%Growth_Rep2,[2]; [7],121.18%
same,Tg_72h_%Growth_Rep1,[3]; [8],112.84%
same,Tg_72h_%Growth_Rep2,[3]; [9],99.08%
COc1cc(C)c(C(=O)O)c(OC)c1 [BIA-O1659],Pf_120h_%Growth_Rep1,"[1]; P. falciparum 3D7, 120 h, parasite screen at 2 μg/mL, % growth, replicate 1",91.75%
same,Pf_120h_%Growth_Rep2,"[1]; P. falciparum 3D7, 120 h, parasite screen at 2 μg/mL, % growth, replicate 2",145.28%
same,Pf_72h_%Growth_Rep1,"[2]; P. falciparum 3D7, 72 h, parasite screen at 2 μg/mL, % growth, replicate 1",84.80%
same,Pf_72h_%Growth_Rep2,"[2]; P. falciparum 3D7, 72 h, parasite screen at 2 μg/mL, % growth, replicate 2",98.06%
same,Tg_72h_%Growth_Rep1,"[3]; T. gondii, 72 h, parasite screen at 2 μg/mL, % growth, replicate 1",135.87%
same,Tg_72h_%Growth_Rep2,"[3]; T. gondii, 72 h, parasite screen at 2 μg/mL, % growth, replicate 2",85.39%
CNC[C@@H]1CC[C@@H](N)[C@@H](O[C@H]2[C@H](O)[C@@H](O[C@H]3OC[C@](C)(O)[C@H](NC)[C@H]3O)[C@H](N)C[C@@H]2N)O1 [Gentamicin C2b],Pf_120h_%Growth_Rep1,[1]; [22],7.99%
same,Pf_120h_%Growth_Rep2,[1]; [23],7.07%
same,Pf_72h_%Growth_Rep1,[2]; [24],6.39%
same,Pf_72h_%Growth_Rep2,[2]; [25],7.30%
same,Tg_72h_%Growth_Rep1,[3]; [24],152.97%
same,Tg_72h_%Growth_Rep2,[3]; [25],86.04%
O=[N+]([O-])c1ncc[nH]1 [Azomycin],activity at 2 µg/mL,"[1]; 3D7, 120 h, library screen at 2 μg/mL, 120 h, % growth, replicate 1, read-out: Pf_120h_%Growth_Rep1",147%
same,activity at 2 µg/mL,"[1]; 3D7, 120 h, library screen at 2 μg/mL, 120 h, % growth, replicate 2, read-out: Pf_120h_%Growth_Rep2",91.9%
same,activity at 2 µg/mL,"[2]; 3D7, 72 h, library screen at 2 μg/mL, 72 h, % growth, replicate 1, read-out: Pf_72h_%Growth_Rep1",83.2%
same,activity at 2 µg/mL,"[2]; 3D7, 72 h, library screen at 2 μg/mL, 72 h, % growth, replicate 2, read-out: Pf_72h_%Growth_Rep2",88%
same,percent parasite growth at 2 µg/mL,"[3]; 72 h, library screen at 2 μg/mL, 72 h, % growth, replicate 1, read-out: Tg_72h_%Growth_Rep1",77.1%
same,percent parasite growth at 2 µg/mL,"[3]; 72 h, library screen at 2 μg/mL, 72 h, % growth, replicate 2, read-out: Tg_72h_%Growth_Rep2",71.1%
CC[C@H]1CCC[C@H](O)[C@@H](C)C(=O)C2=C[C@@H]3[C@@H](C=C[C@@H]4C[C@@H](O[C@@H]5O[C@@H](C)[C@H](OC)[C@@H](OC)[C@H]5OC)C[C@@H]34)[C@@H]2CC(=O)O1 [Spinosyn A pseudoaglycone],Pf_120h_%Growth_Rep1,[1]; [16],17.26%
same,Pf_120h_%Growth_Rep2,[1]; [17],10.80%
same,IC50,"[2]; 3D7, 72 h treatment, mean ± S.D., n ≥ 3, read-out: IC50 (μM), P. falciparum",> 1 µM
same,Pf_72h_%Growth_Rep1,[2]; [18],8.11%
same,Pf_72h_%Growth_Rep2,[2]; [19],-6.27%
same,Mean,"[3]; T. gondii, 72 h, 2 μg/mL, mean of both replicates, growth (% of control)",30.09
same,Replicate 1,[3]; [26],50.49
same,Replicate 2,[3]; [26],9.69
same,Tg_72h_%Growth_Rep1,[3]; [20],50.49%
same,Tg_72h_%Growth_Rep2,[3]; [21],9.69%
COC1C(O)CC(=O)OC(C)CC=CC=CC(O)C(C)CC(CC=O)C1OC1OC(C)C(OC2CC(C)(O)C(OC(=O)CC(C)C)C(C)O2)C(N(C)C)C1O (stereo not shown) [BIA-L1538],Pf_120h_%Growth_Rep1,[1]; [4],5.60%
same,Pf_120h_%Growth_Rep2,[1]; [5],17.51%
same,Pf_72h_%Growth_Rep1,[2]; [6],49.92%
same,Pf_72h_%Growth_Rep2,[2]; [7],67.33%
same,Tg_72h_%Growth_Rep1,[3]; [8],16.93%
same,Tg_72h_%Growth_Rep2,[3]; [9],20.94%
Aflatoxin B1,Pf_120h_%Growth_Rep1,[1],89.63%
same,Pf_120h_%Growth_Rep2,[1],84.39%
same,Pf_72h_%Growth_Rep1,[2],79.06%
same,Pf_72h_%Growth_Rep2,[2],85.00%
same,Tg_72h_%Growth_Rep1,[3],27.47%
same,Tg_72h_%Growth_Rep2,[3],33.32%
COc1ccc(C[C@H]2NC[C@H](O)[C@H]2O)cc1 [Deacetylanisomycin],Pf_120h_%Growth_Rep1,[1]; [10],36.01%
same,Pf_120h_%Growth_Rep2,[1]; [11],30.23%
same,Pf_72h_%Growth_Rep1,[2]; [12],64.17%
same,Pf_72h_%Growth_Rep2,[2]; [13],43.98%
same,Tg_72h_%Growth_Rep1,[3]; [14],5.55%
same,Tg_72h_%Growth_Rep2,[3]; [15],18.56%
O=C1N[C@@H](Cc2c[nH]c3ccccc23)C(=O)N[C@H]1Cc1c[nH]c2ccccc12 [Cyclo(L-Trp-L-Trp)],Pf_120h_%Growth_Rep1,[1]; [10],96.17%
same,Pf_120h_%Growth_Rep2,[1]; [11],91.69%
same,Pf_72h_%Growth_Rep1,[2]; [12],85.34%
same,Pf_72h_%Growth_Rep2,[2]; [13],84.68%
same,Tg_72h_%Growth_Rep1,[3]; [14],161.12%
same,Tg_72h_%Growth_Rep2,[3]; [15],99.00%
Cinnamycin,Pf_120h_%Growth_Rep1,[1]; [10],137.57%
same,Pf_120h_%Growth_Rep2,[1]; [11],92.38%
same,Pf_72h_%Growth_Rep1,[2]; [12],85.92%
same,Pf_72h_%Growth_Rep2,[2]; [13],85.03%
same,Tg_72h_%Growth_Rep1,[3]; [14],85.83%
same,Tg_72h_%Growth_Rep2,[3]; [15],93.54%
